Measurements as given in patent publication EP0491441A1, “Fungicidal isoquinoline derivatives” (SHELL INTERNATIONALE RESEARCH MAATSCHAPPIJ B.V., priority 1990, dated 1992).

Legend:
Format in all cases: in vivo
powdery mildew in barley [1] = experiment: Curative (C) activity against powdery mildew in barley; details: Hordeum vulgare, concentration 100 ppm
Procedure: (§1) In further tests, the residual (R) and curative (C) activities of various compounds against powdery mildew in barley and wheat was determined at various concentrations of the test compounds.

powdery mildew in wheat [2] = experiment: Curative (C) activity against powdery mildew in wheat; details: Triticum aestivum, concentration 400 ppm
Procedure: as §1

powdery mildew in wheat [3] = experiment: Residual (R) activity against powdery mildew in wheat; details: Triticum aestivum, concentration 400 ppm
Procedure: as §1

powdery mildew in barley [4] = experiment: Residual (R) activity against powdery mildew in barley; details: Hordeum vulgare
Procedure: as §1

Structure (SMILES) | activity at 100 ppm (powdery mildew in barley [1]) | activity at 400 ppm (powdery mildew in wheat [2]) | activity at 400 ppm (powdery mildew in wheat [3]) | activity at 400 ppm (powdery mildew in barley [4]; concentration 400 ppm) | activity at 100 ppm (powdery mildew in barley [4]; concentration 100 ppm)
CCCOc1cc2c(cc1OCC)CC[N+]([O-])=C2c1ccccc1[N+](=O)[O-] [Example 7, 1-(2-nitrophenyl)-3,4-dihydro-6-ethoxy-7-propoxyisoquinoline-N-oxide] | 100% | 23% | 94% | 75% | –
CCCOc1cc2c(-c3c(Cl)cccc3Cl)[n+]([O-])ccc2cc1OCC [Example 6, 1-(2,6-Dichlorophenyl)-6-ethoxy-7-propoxyisoquinoline N-oxide] | 100% | 68.5% | 98.8% | – | 100%
